Data from patent publication US11851449B2, “Heterocyclic amide compounds having an RORvt inhibitory action” (TAKEDA PHARMACEUTICAL COMPANY LIMITED, priority 2013, dated 2023).
Like-named read-outs stand apart in the source and are kept apart here.

Legend:
RORγt [1] = target: T1, RORγt (Homo sapiens, UniProt P51449); assay: RORγt binding test (TR-FRET, fluorescent-labeled cholesterol); conditions: read-out: binding inhibitory rate (%) of fluorescent-labeled cholesterol to RORγt at test compound 1 μM
T1 sequence (P51449 1-497 isoform P51449-2): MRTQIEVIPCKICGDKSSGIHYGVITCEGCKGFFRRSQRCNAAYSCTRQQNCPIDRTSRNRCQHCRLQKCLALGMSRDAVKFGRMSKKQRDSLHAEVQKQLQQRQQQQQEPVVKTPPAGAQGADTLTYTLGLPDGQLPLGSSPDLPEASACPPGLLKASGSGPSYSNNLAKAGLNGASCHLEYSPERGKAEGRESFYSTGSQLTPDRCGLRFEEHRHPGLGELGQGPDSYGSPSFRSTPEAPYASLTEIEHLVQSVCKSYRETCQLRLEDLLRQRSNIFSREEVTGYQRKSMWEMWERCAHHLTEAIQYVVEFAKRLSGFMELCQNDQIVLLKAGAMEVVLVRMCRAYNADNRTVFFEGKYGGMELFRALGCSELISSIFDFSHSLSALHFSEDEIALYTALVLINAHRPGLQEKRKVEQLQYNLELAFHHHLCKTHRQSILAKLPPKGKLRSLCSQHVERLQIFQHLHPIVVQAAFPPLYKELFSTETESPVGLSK
Procedure, shortened: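 His-tagged RORγt and BODIPY-cholesterol were incubated with compound for 20 min at room temperature in Tris-HCl pH 7.5, 100 mM NaCl, 1 mM DTT and 0.1% BSA. Terbium anti-His antibody was then added for a further 20 min.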

RORγt [2] = target: T1, RORγt; assay: Cofactor recruitment test (Alpha Screen, biotinylated SRC-1 peptide); type: biochemical; conditions: read-out: signal value inhibitory rate (%) at test compound 1 μM
Experimental: Cofactor Recruitment Test
Cofactor recruitment test was performed by Alpha Screen (Histidine Detection Kit, PerkinElmer) method. First, a test compound was diluted with an assay buffer (50 mM Tris-HCl (pH 7.5), 50 mM KCl, 1 mM DTT, 0.1% BSA) and added to a 384 well plate by 5 μL. […] The mixture was stood in a dark place for 1 hr, and the signal value was measured by Envision (PerkinElmer).

RORγt [3] = target: T1, RORγt; assay: Jurkat reporter test (human IL-17 ROR response element luciferase reporter); type: cell-based; conditions: read-out: luminescence level inhibitory rate (%) at test compound 3 μM
Procedure, shortened: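 Luminescence (Bright-Glo, 10 min, RT) was measured after overnight compound treatment of electroporated Jurkat cells (1350 V, 10 ms interval, 3 pulses). The reaction medium was RPMI with 10% lipid-reduced FCS, 10 mM HEPES (pH 7.5) and 5 μM lovastatin.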

[4] = test compound 3 μM, Jurkat cells

Row | inhibition at 3 µM (RORγt [3]; [4]) [%] | SMILES | inhibition at 1 µM (RORγt [1]) [%] | inhibition at 1 µM (RORγt [2]) [%] | inhibition at 3 µM (RORγt [3]; Jurkat) [%]
1 | – | COc1ccc(C(NC(=O)N2CCC(O)C2)C(=O)Nc2ccc([Si](C)(C)C)c(F)c2)cc1 (stereo not drawn) [Example 29, N-(2-((3-fluoro-4-(trimethylsilyl)phenyl)amino)-1-(4-methoxyphenyl)-2-oxoethyl)-3-hydroxypyrrolidine-1-carboxamide] | 101 | 92.3 | 99.2
2 | – | COCc1ccc([C@@H](NC(=O)Cc2nnc(C)o2)C(=O)Nc2ccc([Si](C)(C)C)c(F)c2)cc1 [Example 67, (2R)—N-(3-fluoro-4-(trimethylsilyl)phenyl)-2-(4-(methoxymethyl)phenyl)-2-(((5-methyl-1,3,4-oxadiazol-2-yl)acetyl)amino)acetamide] | 103 | 96 | 98.5
3 | – | COCc1ccc([C@@H](NC(=O)Cn2ccc(=O)cc2)C(=O)Nc2ccc([Si](C)(C)C)c(F)c2)cc1 [Example 78, (2R)—N-(3-fluoro-4-(trimethylsilyl)phenyl)-2-(4-(methoxymethyl)phenyl)-2-(((4-oxopyridin-1(4H)-yl)acetyl)amino)acetamide] | 102 | 93.2 | 96
4 | – | COc1ccc(C(NC(=O)Cc2cnn(C)c2)C(=O)Nc2ccc([Si](C)(C)C)cc2)cc1 (stereo not drawn) [Example 20, 2-(4-methoxyphenyl)-2-(((1-methyl-1H-pyrazol-4-yl)acetyl)amino)-N-(4-(trimethylsilyl)phenyl)acetamide] | 101 | 73 | 91.8
5 | – | COCc1ccc(C(NC(=O)Cn2cnccc2=O)C(=O)Nc2ccc([Si](C)(C)C)c(F)c2)cc1 (stereo not drawn) [Example 36, N-(3-fluoro-4-(trimethylsilyl)phenyl)-2-(4-(methoxymethyl)phenyl)-2-(((6-oxopyrimidin-1(6H)-yl)acetyl)amino)acetamide] | 96.2 | 98.2 | 99.8
6 | 99.4 | COCc1ccc([C@@H](NC(=O)Cn2cnccc2=O)C(=O)Nc2ccc(C(C)(C)C)c(F)c2)cc1 [Example 100, (2R)—N-(4-tert-butyl-3-fluorophenyl)-2-(4-(methoxymethyl)phenyl)-2-(((6-oxopyrimidin-1(6H)-yl)acetyl)amino)acetamide] | 99.6 | 86.3 | –
7 | – | COCc1ccc([C@@H](NC(=O)CO)C(=O)Nc2ccc([Si](C)(C)C)c(F)c2)cc1 [Example 85, (2R)—N-(3-fluoro-4-(trimethylsilyl)phenyl)-2-(glycoloylamino)-2-(4-(methoxymethyl)phenyl)acetamide] | 103 | 90.1 | 99
8 | – | COCc1ccc([C@@H](NC(=O)CC(C)(C)C(=O)O)C(=O)Nc2cc(F)c([Si](C)(C)C)c(F)c2)cc1 [Example 103, 4-(((1R)-2-((3,5-difluoro-4-(trimethylsilyl)phenyl)amino)-1-(4-(methoxymethyl)phenyl)-2-oxoethyl)amino)-2,2-dimethyl-4-oxobutanoic acid] | 102 | 96.2 | 100
9 | – | COc1ccc(C(C(=O)Nc2cc(F)c([Si](C)(C)C)cc2F)N(C)C(=O)c2cc(O)no2)cc1 (stereo not drawn) [Example 21, N-(2-((2,5-difluoro-4-(trimethylsilyl)phenyl)amino)-1-(4-methoxyphenyl)-2-oxoethyl)-3-hydroxy-N-methyl-1,2-oxazole-5-carboxamide] | 101 | 93.1 | 98.3
10 | – | COc1ccc([C@@H](NC(=O)N2CC[C@H](O)C2)C(=O)Nc2ccc([Si](C)(C)C)c(F)c2)cc1 [Example 64, (3S)—N-((1R)-2-((3-fluoro-4-(trimethylsilyl)phenyl)amino)-1-(4-methoxyphenyl)-2-oxoethyl)-3-hydroxypyrrolidine-1-carboxamide] | 102 | 90.1 | 98.7
11 | – | COc1ccc(C(NC(=O)C2CNC(=O)C2)C(=O)Nc2ccc([Si](C)(C)C)c(F)c2)cc1 (stereo not drawn) [Example 28, N-(2-((3-fluoro-4-(trimethylsilyl)phenyl)amino)-1-(4-methoxyphenyl)-2-oxoethyl)-5-oxopyrrolidine-3-carboxamide] | 100 | 88 | 98
12 | – | COc1ccc([C@@H](NC(=O)[C@@H]2CNC(=O)C2)C(=O)Nc2ccc([Si](C)(C)C)c(F)c2)cc1 [Example 50, (3S)—N-((1R)-2-((3-fluoro-4-(trimethylsilyl)phenyl)amino)-1-(4-methoxyphenyl)-2-oxoethyl)-5-oxopyrrolidine-3-carboxamide] | 102 | 91.5 | 98
13 | – | COCc1ccc([C@@H](NC(=O)Cn2nc(C)ccc2=O)C(=O)Nc2cc(F)c([Si](C)(C)C)c(F)c2)cc1 [Example 61, (2R)—N-(3,5-difluoro-4-(trimethylsilyl)phenyl)-2-(4-(methoxymethyl)phenyl)-2-(((3-methyl-6-oxopyridazin-1(6H)-yl)acetyl)amino)acetamide] | 102 | 97 | 100
14 | – | COCc1ccc(C(NC(=O)C2CNC(=O)C2)C(=O)Nc2ccc([Si](C)(C)C)c(F)c2)cc1 (stereo not drawn) [Example 32, N-(2-((3-fluoro-4-(trimethylsilyl)phenyl)amino)-1-(4-(methoxymethyl)phenyl)-2-oxoethyl)-5-oxopyrrolidine-3-carboxamide] | 95.2 | 95.6 | 99.1
15 | – | COCc1ccc([C@@H](NC(=O)Cc2cc(O)no2)C(=O)Nc2cc(F)c([Si](C)(C)C)c(F)c2)cc1 [Example 76, (2R)—N-(3,5-difluoro-4-(trimethylsilyl)phenyl)-2-(((3-hydroxy-1,2-oxazol-5-yl)acetyl)amino)-2-(4-(methoxymethyl)phenyl)acetamide] | 103 | 98.5 | 99.3
16 | – | COCc1ccc(C(NC(=O)Cn2ncc3ccccc32)C(=O)Nc2cc(F)c([Si](C)(C)C)cc2F)cc1 (stereo not drawn) [Example 47, N-(2,5-difluoro-4-(trimethylsilyl)phenyl)-2-((1H-indazol-1-ylacetyl)amino)-2-(4-(methoxymethyl)phenyl)acetamide] | 100 | 92.4 | 100
17 | – | COCc1ccc(C(NC(=O)N2CC(O)C2)C(=O)Nc2ccc([Si](C)(C)C)c(F)c2)cc1 (stereo not drawn) [Example 34, N-(2-((3-fluoro-4-(trimethylsilyl)phenyl)amino)-1-(4-(methoxymethyl)phenyl)-2-oxoethyl)-3-hydroxyazetidine-1-carboxamide] | 101 | 98.9 | 99.2
18 | – | C[Si](C)(C)c1ccc(NC(=O)C(NC(=O)c2cc(O)no2)C2CCC(F)(F)CC2)cc1F (stereo not drawn) [Example 4, N-(1-(4,4-difluorocyclohexyl)-2-((3-fluoro-4-(trimethylsilyl)phenyl)amino)-2-oxoethyl)-3-hydroxy-1,2-oxazole-5-carboxamide] | 100 | 78.8 | 97
19 | – | Cn1ncc2cc([C@@H](NC(=O)[C@@H]3CNC(=O)C3)C(=O)Nc3ccc([Si](C)(C)C)c(F)c3)ccc21 [Example 112, (3S)—N-((1R)-2-((3-fluoro-4-(trimethylsilyl)phenyl)amino)-1-(1-methyl-1H-indazol-5-yl)-2-oxoethyl)-5-oxopyrrolidine-3-carboxamide] | 103 | 83.2 | 100
20 | 99.5 | COCc1ccc([C@@H](NC(=O)[C@@H]2CNC(=O)C2)C(=O)Nc2ccc(C(C)(C)C)c(F)c2)cc1 [Example 101, (3S)—N-((1R)-2-((4-tert-butyl-3-fluorophenyl)amino)-1-(4-(methoxymethyl)phenyl)-2-oxoethyl)-5-oxopyrrolidine-3-carboxamide] | 101 | 87.6 | –
21 | – | COCc1ccc([C@@H](NC(=O)[C@H]2CNC(=O)C2)C(=O)Nc2cc(F)c([Si](C)(C)C)cc2F)cc1 [Example 55, (3R)—N-((1R)-2-((2,5-difluoro-4-(trimethylsilyl)phenyl)amino)-1-(4-(methoxymethyl)phenyl)-2-oxoethyl)-5-oxopyrrolidine-3-carboxamide] | 102 | 95.8 | 98.6
